# Assay results as given in PMC10046687, “Residues of Legume AG41 Peptide Crucial to Its Bio-Insecticidal Activity” (Biomolecules, 2023).
# Where two headings read alike, the source gives them in different places. Bridge positions count the residues as written; N and C are the ends. Ends that are not written are not given here.
# Legend:
# PA1b receptor = assay: Competitive ligand binding with 125I-PA1b on microsomal protein; settings: competition with 0.4 nM 125I-PA1b, 20 µg microsomal protein per assay, peptide 0.01 to 1000 nM, mean ± standard error, read-out: Ki (affinity to the PA1b receptor)
# Description: To evaluate the affinity of synthetic AG41 and its mutants to PA1b receptor, ligand binding studies were conducted ^125I-toxin [29]. […] Total binding was assessed using 20 µg per assay of microsomal protein (sedimenting at 45,000 g) and 0.4 nM of I^125-PA1b, while in the non-specific binding assays 1000 nM of unlabeled AG41 or alanine mutant peptide was added. The level of specific binding (i.e., total binding minus non-specific binding) was estimated based on three replicates. Competitive experiments were performed with 0.4 nM ^125I-PA1b (specific radioactivity of approximately 1000 Ci.mmol^−1) and competition was performed with AG41 and its alanine mutant peptides at concentrations ranging from 0.01 to 1000 nM.
# (§1) The experimental Ki and LD5O data were assessed separately by non-linear regression analysis using the SIMFIT software package. Biological results are expressed as mean ± S.E. (standard error).
# [1] = tested on: Spodoptera frugiperda Sf9 insect cells; assay: Viability assay (MTT) on cultured Sf9 insect cells; assay type: cell-based; settings: 24 h exposure, 27 °C, each concentration in triplicate, mean ± standard error, SEM
# Description: Viability assays were performed on Spodoptera frugiperda Sf9 insect cells in culture using the 3-(4,5-dimethylthiazol-2-yl)-2,5-diphenyltetrazolium bromide (MTT) protocol. Briefly, Sf9 cells lines were grown at 27 °C in Lonza’s culture medium, supplemented with 5% fetal bovine serum (FBS) and 0.1% gentamicin. Sf9 cells were seeded, in 96-well plates, 24 h prior to the experiments (15,000 cells/well) and were exposed to increasing concentrations of AG41 and its alanine mutant peptides for 24 h. Each concentration was performed in triplicate. Cell viability was determined by a colorimetric assay based on the ability of viable cells to reduce MTT. Cells were loaded with MTT solution (0.5 mg ml^−^1) and incubated at 27 °C for 2 h. Cell homogenates were used to measure absorbance at 550 nm using a microplate reader (MR 7000, Dynatech Laboratories Inc., Richmond, CA, USA).
# as §1
sequence,measurement,setting,value
"ASCPNVGAVCSPAETKPCGNVKDCRCLPWGLFFGTCINPTG (also: bicyclic or more (positions not given here)) [F13A, single point alanine mutant of AG41 at Phe-13]",Ki,PA1b receptor,> 1 µM
"ASCPNVGAVCSPFATKPCGNVKDCRCLPWGLFFGTCINPTG (also: bicyclic or more (positions not given here)) [E14A, single point alanine mutant of AG41 at Glu-14]",Ki,PA1b receptor; SEM,0.0012 ± 0.0013 µM
"ASCPNVGAVCSPFETAPCGNVKDCRCLPWGLFFGTCINPTG (disulfide 3-24, 10-26, 18-36) [K16A]",LD50 (insect cell toxicity),[1],10.0 ± 4.0 nM
same,Ki,PA1b receptor; SEM,0.0036 ± 0.0016 µM
"ASCPNVGAVCSPFETKPCGNVADCRCLPWGLFFGTCINPTG (disulfide 3-24, 10-26, 18-36) [K22A]",LD50 (insect cell toxicity),[1],14.2 ± 6.3 nM
same,Ki,PA1b receptor; SEM,0.0032 ± 0.0017 µM
"ASCPNVGAVCSPFETKPCGNVKACRCLPWGLFFGTCINPTG (disulfide 3-24, 10-26, 18-36) [D23A]",LD50 (insect cell toxicity),[1],24 ± 9 nM
same,Ki,PA1b receptor; SEM,0.0012 ± 0.0016 µM
"ASCPNVGAVCSPFETKPCGNVKDCACLPWGLFFGTCINPTG (also: bicyclic or more (positions not given here)) [R25A, single point alanine mutant of AG41 at Arg-25]",Ki,PA1b receptor,> 1 µM
"ASCPNVGAVCSPFETKPCGNVKDCRCAPWGLFFGTCINPTG (disulfide 3-24, 10-26, 18-36) [L27A]",LD50 (insect cell toxicity),[1],907 ± 46 nM
same,Ki,PA1b receptor; SEM,0.486 ± 0.011 µM
"ASCPNVGAVCSPFETKPCGNVKDCRCLPAGLFFGTCINPTG (disulfide 3-24, 10-26, 18-36) [W29A]",LD50 (insect cell toxicity),[1],89.0 ± 3.7 nM
same,Ki,PA1b receptor; SEM,0.0363 ± 0.0067 µM
"ASCPNVGAVCSPFETKPCGNVKDCRCLPWGAFFGTCINPTG (also: bicyclic or more (positions not given here)) [L31A, single point alanine mutant of AG41 at Leu-31]",Ki,PA1b receptor; SEM,0.263 ± 0.008 µM
"ASCPNVGAVCSPFETKPCGNVKDCRCLPWGLAFGTCINPTG (disulfide 3-24, 10-26, 18-36) [F32A]",LD50 (insect cell toxicity),[1],122 ± 12 nM
same,Ki,PA1b receptor; SEM,0.0398 ± 0.015 µM
"ASCPNVGAVCSPFETKPCGNVKDCRCLPWGLFAGTCINPTG (disulfide 3-24, 10-26, 18-36) [F33A]",LD50 (insect cell toxicity),[1],210 ± 8 nM
same,Ki,PA1b receptor; SEM,0.015 ± 0.0048 µM
"ASCPNVGAVCSPFETKPCGNVKDCRCLPWGLFFGTCINPTG (disulfide 3-24, 10-26, 18-36) [AG41]",LD50 (insect cell toxicity),[1],5.6 ± 1.8 nM
same,Ki,PA1b receptor; SEM,0.0013 ± 0.0006 µM
